In patent US10072034B2, “Kinase inhibitors” (Respivert Limited, priority 2016, dated 2018):
Values after ≈ are worked out from the molar mass of the structure shown. Where two headings read alike, the source gives them in different places.

Assays:
[1] = system: SCID mice injected with CD45RBhigh cells; test: Adoptive transfer in mice (T cell driven model of colonic inflammation; assay (v)); format: in vivo; details: for % Inhibition (of induction window between naïve and vehicle animals, colon weight:length) / Colon weight:length: 3 mg/kg BID oral gavage, day 14 to day 49 (Reference Compound A lowered to 0.6 mg/kg on day 27)
Method: On Study day 0, female Balb/C mice are terminated and spleens obtained for CD45RB^high cell isolation (Using SCID IBD cell Separation protocol). Approximately 4×10^5 cells/mL CD45RB^high cells are then injected intraperitoneally (100 μL/mouse) into female SCID animals. On study day 14, mice are weighed and random/zed into treatment groups based on body weight. On Day 14, compounds are administered BID, via oral gavage, in 5% polyoxyethylene 40 stearate in 20 mM pH 7.8 aqueous phosphate buffer in a dose volume of 5 mL/kg. Treatment continues until study day 49, at which point the animals are necropsied 4 hours after the morning administration. The colon length and weight are recorded and used as a secondary endpoint in the study as a measurement of colon oedema. The colon is then divided into six cross-sections, four of which are used for histopathology scoring (primary endpoint) and two are homogenised for cytokine analysis. Data shown is the % inhibition of the induction window between naïve animals and vehicle animals, where higher inhibition implies closer to the non-diseased, naïve, phenotype.

[2] = Microcentrifuge dissolution test 1): transfer from intestinal buffer (IB) to colonic buffer (CB); format: physicochemical; details: for Concentration, CB Timepoint 4 min: pH 7.2, 4 min; for Concentration, CB Timepoint 10 min: pH 7.2, 10 min; for Concentration, CB Timepoint 20 min: pH 7.2, 20 min; for Concentration, CB Timepoint 40 min: pH 7.2, 40 min; for Concentration, CB Timepoint 90 min: pH 7.2, 90 min; for Concentration, CB Timepoint 1,200 min: pH 7.2, 1,200 min; for Concentration, IB Timepoint −5 min / Concentration, IB Timepoint −15 min / Concentration, IB Timepoint −25 min: PBS pH 6.5, 37° C.; for Additional concentration, UCF Timepoint 90 min / Additional concentration, UCF Timepoint 1,200 min: after ultracentrifugation (free drug + drug in micelles); for Additional concentration, UCF Timepoint 90 min: CB pH 7.2, 90 min; for Additional concentration, UCF Timepoint 1,200 min: CB pH 7.2, 1,200 min
Method: In vitro non-sink dissolution performance of the Compound of Example 3 was evaluated alongside Reference Compounds A and B employing microcentrifuge dissolution tests in which samples were either 1) transferred from intestinal buffer (IB) to colonic buffer (CB) or 2) dosed directly into intestinal media containing simulated bile-salt micelles (IB-SIF). Dissolution performance of the compounds at various timepoints was determined by centrifugation and analysis of the supernatant concentrations by off-line reverse-phase HPLC analysis.
Test compounds (0.45 mg±0.05 mg) were weighed into a microcentrifuge tube, then 0.900 mL of IB receptor solution—phosphate buffered saline (PBS) warmed to 37° C. at pH 6.5—was added. A timer was started and the sample tubes were vortexed at the maximum setting for 1 minute. When the timer read 3, 13 and 23 min—corresponding to the 25, 15 and 5 min timepoints, respectively—the sample tubes were centrifuged for 1 min at 15,800 Relative Centrifugal Force (RCF). At each timepoint, a portion of the supernatant (50 μL) was added to diluent {250 μL of 75/25 THF/Water (v/v)} and the compound concentrations were measured by off-line HPLC analysis (Table 6a). After a further 5 min, 0.900 mL of CB receptor solution—pH 10.7 PBS solution—was added, such that the pH was adjusted to 7.2, and the timer was reset to 0 min. When the timer read 2, 8, 18, 38, 88 and 1,198 min—corresponding to the 4, 10, 20, 40, 90 and 1,200 min timepoints, respectively—the sample tubes were centrifuged for 1 min at 15,800 RCF. At each timepoint, a portion of the supernatant (50 μL) was added to diluent {250 μL of 75/25 THF/Water (v/v)} and the compound concentrations were measured by off-line HPLC analysis (Table 6a). The HPLC samples for the 90 and 1,200 min timepoints were additionally centrifuged for 8 min at 80,000 rpm at 37° C. in an ultracentrifuge (UCF), then the supernatant (50 μL) was added to diluent {250 μL of 75/25 THF/Water (v/v)} and the compound concentrations were measured by off-line HPLC analysis (Table 6b) to determine the concentration of free drug+drug in micelles.

[3] = as above; format: physicochemical; details: PBS pH 6.5, 37° C.
[4] = Solubility in fasted-state simulated colonic fluid (FaSSCoF) at pH 6.5; format: physicochemical; details: pH 6.5, 25° C.; for solubility thermodynamic at 24 h: fasted-state simulated colonic fluid (FaSSCoF), 25 °C, pH 6.5, fassgf or other biorelevant, thermodynamic from solid
Method: The solubilities of compounds of the invention in FaSSCoF at pH 6.5 are determined using a modification of a previously-reported procedure (Vertzoni, M., et al. Pharm. Res. 2010, 27, 2187-2196). In place of the bile salt extract employed in the original procedure (which extract is no longer available), the modified procedure uses a mixture of sodium taurocholate (0.15 g), glycocholic acid (0.15 g), ursodeoxycholic acid (0.05 g), cholic acid (0.05 g), and glycodeoxycholic acid (0.05 g). These five bile acids are ground together with a mortar and pestle to produce a fine white powder that is incorporated into the FaSSCoF, as outlined below.
FaSSCoF medium: Tris(hydroxymethyl)aminomethane (Tris; 0.275 g) and maleic acid (0.44 g) are dissolved in water (35 mL) to give a solution whose pH is adjusted to 6.5 by treatment with 0.5M NaOH (ca. 12 mL). The solution is then made up to 50 mL with water. A portion of this Tris/maleate buffer solution (ca. 25 mL) is added to a 0.5 L round-bottomed flask, before being treated with 0.00565 g of the bile acid mixture described above. Solutions of phosphatidylcholine (0.0111 g) in DCM (0.15 mL) and palmitic acid (0.0013 g) in DCM (0.15 mL) are added, then the organic solvent is evaporated off under reduced pressure at 40° C. until a clear solution, with no perceptible DCM odour, is achieved. The volume of the evaporated solution is adjusted to 50 mL by addition of the remainder of Tris/maleate buffer, then BSA (0.115 g) is added, before being dissolved by gentle agitation.
Solubility Determination: Test compounds are suspended in the pH 6.5 FaSSCoF medium to give a maximum final concentration of 2-10 mg/mL. The suspensions are equilibrated at 25° C. for 24 h, before being filtered through a glass fibre C filter. The filtrates are then diluted as appropriate for injection and quantification by HPLC with reference to a standard. Different volumes of the standard, diluted and undiluted sample solutions are injected and the solubilities are calculated using the peak areas determined by integration of the peak found at the same retention time as the principal peak in the standard injection.

[5] = Run 1, read-out: pH 6.5 FaSSCoF Solubility Run 1
[6] = Run 2, read-out: pH 6.5 FaSSCoF Solubility Run 2

SMILES	% Inhibition (of induction window between naïve and vehicle animals, colon weight:length) [1]	Colon weight:length [1]	Activity compared to the two Reference Compounds (colon weight to length ratio) ([1]; simple aqueous-based vehicle)	Concentration, CB Timepoint 4 min [2]	Concentration, CB Timepoint 10 min [2]	Concentration, CB Timepoint 20 min [2]	Concentration, CB Timepoint 40 min [2]	Concentration, CB Timepoint 90 min [2]	Concentration, CB Timepoint 1,200 min [2]	Concentration, IB Timepoint −5 min [2]	Concentration, IB Timepoint −15 min [2]	Concentration, IB Timepoint −25 min [2]	Additional concentration, UCF Timepoint 90 min [2]	Additional concentration, UCF Timepoint 1,200 min [2]	Concentration, IB Timepoint −30 min [3]	solubility thermodynamic at 24 h [4, 5]	solubility thermodynamic at 24 h [4, 6]	pH 6.5 FaSSCoF Solubility Run 1 ([4]; 24 h, Run 1)	pH 6.5 FaSSCoF Solubility Run 2 ([4]; 24 h, Run 2)
COc1cc(Nc2cc(Oc3ccc(NC(=O)Nc4cc(C(C)(C)C)cc(NS(C)(=O)=O)c4OC)c4ccccc34)ccn2)cc(OCCOCCOCC(=O)O)c1 [Example 3]	49%	0.032 ± 0.004	superior activity	9300 ng/mL	9100 ng/mL	14300 ng/mL	48300 ng/mL	60700 ng/mL	85400 ng/mL	8500 ng/mL	7500 ng/mL	5300 ng/mL	34.1 µg/mL	74.9 µg/mL	0 ng/mL	280 µg/mL (≈ 342 µM)	200 µg/mL (≈ 245 µM)		
COc1cc(Nc2nccc(Oc3ccc(NC(=O)Nc4cc(C(C)(C)C)cc(NS(C)(=O)=O)c4OC)c4ccccc34)n2)cc(OCCOCCOCCC(=O)O)c1 [Reference Compound A, 3-(2-(2-(3-((4-((4-(3-(5-(tert-butyl)-2-methoxy-3-(methylsulfonamido)phenyl)ureido)naphthalen-1-yl)oxy)-pyrimidin-2-yl)amino)-5-methoxyphenoxy)ethoxy)ethoxy)propanoic acid]	−14%	0.047 ± 0.007		11400 ng/mL	11500 ng/mL	10700 ng/mL	10700 ng/mL	8400 ng/mL	7900 ng/mL	5300 ng/mL	4600 ng/mL	2900 ng/mL	5.1 µg/mL	3.9 µg/mL	0 ng/mL			0.007 mg/mL	0.007 mg/mL
C#Cc1cc(Nc2nccc(Oc3ccc(NC(=O)Nc4cc(C(C)(C)C)nn4-c4ccc(C)cc4)c4ccccc34)n2)cc(C(=O)NCCOCCOCCOC)c1 [Reference Compound B, 3-((4-((4-(3-(3-(tert-butyl)-1-(p-tolyl)-1H-pyrazol-5-yl)ureido)naphthalen-1-yl)oxy)pyrimidin-2-yl)amino)-5-ethynyl-N-(2-(2-(2-methoxyethoxy)ethoxy)ethyl)benzamide]	11%	0.041 ± 0.005		5000 ng/mL	1900 ng/mL	900 ng/mL	600 ng/mL	0 ng/mL	4900 ng/mL	2200 ng/mL	1000 ng/mL	1900 ng/mL	0.0 µg/mL	1.6 µg/mL	0 ng/mL	< 1 µg/mL	< 1 µg/mL		
